Experimental data from ChEMBL document CHEMBL1201862, “PubChem BioAssay data set” (2004).
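Interpolation was linear, between the two tested concentrations surrounding the appropriate level; five concentrations were tested over 48 hours in 96-well plates. GI50: concentration for 50% inhibition of growth.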 Active and inactive are the calls of the source. Cut-off read from the data, not from the text of the source: active = GI50 up to about 1.1 µM and inactive = higher.

Experiments:
Assay in all cases: inhibition of tumour cell growth, NCI panel, 48 h
RXF 393 = system: RXF 393
MOLT-4 = system: MOLT-4
OVCAR-4 = system: OVCAR-4
MDA-MB-435 = system: MDA-MB-435
HOP-92 = system: HOP-92
SK-MEL-28 = system: SK-MEL-28
M14 = system: M14
NCI-H23 = system: NCI-H23
MCF7 = system: MCF7
U-251 = system: U-251
SF-539 = system: SF-539
SK-MEL-5 = system: SK-MEL-5
DU-145 = system: DU-145
UO-31 = system: UO-31
SW-620 = system: SW-620
SK-OV-3 = system: SK-OV-3
SR = system: SR
RPMI-8226 = system: RPMI-8226
PC-3 = system: PC-3
NCI-H522 = system: NCI-H522

Measured: GI50

N#C/C(=C/NC(=S)c1ccncc1)C(N)=O
inactive: RXF 393 > 100 µM | MOLT-4 > 100 µM | OVCAR-4 > 100 µM | MDA-MB-435 > 100 µM | HOP-92 > 100 µM | SK-MEL-28 > 100 µM | M14 > 100 µM | NCI-H23 > 100 µM | MCF7 > 100 µM | U-251 > 100 µM | SF-539 > 100 µM | SK-MEL-5 > 100 µM | DU-145 > 100 µM | UO-31 > 100 µM | SW-620 > 100 µM | SK-OV-3 > 100 µM

CC(=O)OCC1OC(c2nc3ccccc3s2)=CC(OC(C)=O)C1OC(C)=O (stereo not drawn)
inactive: SR 41.1 µM | RXF 393 78.3 µM | MOLT-4 > 10 µM | OVCAR-4 > 100 µM | MDA-MB-435 > 100 µM | SK-MEL-28 > 100 µM | RPMI-8226 37.3 µM | NCI-H23 > 100 µM | MCF7 > 100 µM | U-251 89.9 µM | SF-539 > 100 µM | PC-3 > 100 µM | SK-MEL-5 > 100 µM | DU-145 > 100 µM | NCI-H522 > 100 µM | UO-31 > 100 µM | SW-620 > 100 µM

COC(=O)c1cc(C#N)[nH]c1-c1ccc(C)s1
inactive: SR 63 µM | RXF 393 11.5 µM | MOLT-4 > 100 µM | OVCAR-4 76.2 µM | MDA-MB-435 91.4 µM | HOP-92 30.2 µM | SK-MEL-28 56.4 µM | M14 > 100 µM | RPMI-8226 51.3 µM | NCI-H23 34 µM | U-251 95.5 µM | SF-539 > 100 µM | PC-3 8.39 µM | DU-145 30.6 µM | NCI-H522 36.1 µM | UO-31 42.9 µM | SW-620 43.9 µM | SK-OV-3 55.5 µM

CC(C)(CO)CNc1nc(N)nc(Cl)c1N
inactive: RXF 393 > 100 µM | MOLT-4 > 100 µM | OVCAR-4 > 100 µM | MDA-MB-435 > 100 µM | HOP-92 > 100 µM | SK-MEL-28 > 100 µM | NCI-H23 > 100 µM | MCF7 > 100 µM | U-251 > 100 µM | SF-539 > 100 µM | PC-3 > 100 µM | SK-MEL-5 95.1 µM | DU-145 > 100 µM | NCI-H522 > 100 µM | UO-31 > 100 µM | SW-620 > 100 µM | SK-OV-3 > 100 µM

NS(=O)(=O)c1nnc(NC(=O)c2cccc([N+](=O)[O-])c2)s1
inactive: SR > 100 µM | RXF 393 > 100 µM | MOLT-4 > 100 µM | OVCAR-4 > 100 µM | MDA-MB-435 > 100 µM | HOP-92 44.9 µM | SK-MEL-28 > 100 µM | M14 > 100 µM | RPMI-8226 > 100 µM | NCI-H23 > 100 µM | MCF7 > 100 µM | U-251 > 100 µM | SF-539 > 100 µM | SK-MEL-5 > 100 µM | DU-145 > 100 µM | NCI-H522 > 100 µM | UO-31 > 100 µM | SW-620 > 100 µM | SK-OV-3 > 100 µM

CC(=O)/C(=C/N1C(=O)CC(=O)NC1=S)C(=O)Nc1ccccc1C
inactive: RXF 393 78.3 µM | MOLT-4 28 µM | OVCAR-4 57.5 µM | MDA-MB-435 66.8 µM | HOP-92 > 100 µM | SK-MEL-28 58.6 µM | M14 76 µM | NCI-H23 41.2 µM | MCF7 60.4 µM | U-251 36 µM | SF-539 32.3 µM | SK-MEL-5 57.9 µM | DU-145 97.3 µM | UO-31 > 100 µM | SW-620 32.8 µM | SK-OV-3 > 100 µM

CC(C)OP(=O)(OC(C)C)C(C(C)C)N(C)/C(N)=N\C1=NC(C(F)(F)F)(C(F)(F)F)N=C(C(C(F)(F)F)C(F)(F)F)O1 (stereo not drawn)
inactive: SR 1.9 µM | RXF 393 1.6 µM | MOLT-4 1.49 µM | MDA-MB-435 1.8 µM | SK-MEL-28 3.18 µM | M14 1.41 µM | RPMI-8226 1.97 µM | NCI-H23 3.61 µM | MCF7 3.79 µM | U-251 3.08 µM | SF-539 3.75 µM | PC-3 2.56 µM | SK-MEL-5 1.56 µM | DU-145 6.9 µM | NCI-H522 1.41 µM | UO-31 4.47 µM | SW-620 2.28 µM | SK-OV-3 5.4 µM

CCN(CC)CCSc1nc(-c2c[nH]c3nc(C)ccc3c2=O)n[nH]1
inactive: RXF 393 > 100 µM | MOLT-4 > 100 µM | OVCAR-4 > 100 µM | MDA-MB-435 > 100 µM | SK-MEL-28 > 100 µM | M14 > 100 µM | RPMI-8226 > 100 µM | NCI-H23 > 100 µM | MCF7 > 100 µM | U-251 > 100 µM | PC-3 > 100 µM | SK-MEL-5 > 100 µM | DU-145 > 100 µM | NCI-H522 > 100 µM | UO-31 > 100 µM | SW-620 > 100 µM

S=c1[nH]c(Cl)cc2nc(Cl)cn12
inactive: RXF 393 2.84 µM | OVCAR-4 6.14 µM | MDA-MB-435 2.09 µM | HOP-92 17.5 µM | SK-MEL-28 8.2 µM | M14 4.24 µM | RPMI-8226 16.1 µM | NCI-H23 5.82 µM | MCF7 3.13 µM | U-251 4.53 µM | SF-539 2.2 µM | PC-3 3.94 µM | SK-MEL-5 2.95 µM | DU-145 5.01 µM | NCI-H522 1.57 µM | UO-31 4.7 µM | SW-620 6.68 µM | SK-OV-3 2.93 µM

CCCCc1ccc(-n2sc3ncccc3c2=O)cc1
inactive: SR 4.72 µM | MOLT-4 4.74 µM | OVCAR-4 13.6 µM | MDA-MB-435 16.3 µM | SK-MEL-28 13.9 µM | M14 11.2 µM | RPMI-8226 8.02 µM | NCI-H23 15.9 µM | MCF7 23.8 µM | U-251 15.1 µM | SF-539 21 µM | PC-3 11 µM | SK-MEL-5 11.3 µM | DU-145 21 µM | NCI-H522 2.58 µM | UO-31 11.3 µM | SW-620 13.9 µM | SK-OV-3 26.9 µM

O=c1c2cccc3cccc(c4n1CCN=4)c32
inactive: SR 25.2 µM | RXF 393 42.4 µM | MOLT-4 30.3 µM | OVCAR-4 40.8 µM | HOP-92 > 100 µM | SK-MEL-28 > 100 µM | M14 73.1 µM | RPMI-8226 > 100 µM | NCI-H23 > 100 µM | U-251 > 100 µM | SF-539 > 100 µM | SK-MEL-5 > 100 µM | NCI-H522 84.3 µM | UO-31 41 µM | SW-620 > 100 µM | SK-OV-3 41 µM

NC(=O)NNc1nc(-c2ccccc2)cs1
inactive: SR > 100 µM | RXF 393 > 100 µM | MOLT-4 > 100 µM | OVCAR-4 > 100 µM | MDA-MB-435 > 100 µM | SK-MEL-28 > 100 µM | M14 > 100 µM | RPMI-8226 > 100 µM | MCF7 > 100 µM | U-251 > 100 µM | PC-3 > 100 µM | SK-MEL-5 > 100 µM | DU-145 > 100 µM | NCI-H522 > 100 µM | UO-31 > 100 µM | SW-620 > 100 µM | SK-OV-3 > 100 µM

O=C1C2CC=CCC2C(=O)N1n1c(Cc2ccccc2)n[nH]c1=O (stereo not drawn)
inactive: SR > 100 µM | RXF 393 > 100 µM | MOLT-4 > 100 µM | OVCAR-4 > 100 µM | MDA-MB-435 > 100 µM | HOP-92 > 100 µM | M14 > 100 µM | RPMI-8226 > 100 µM | NCI-H23 > 100 µM | MCF7 > 100 µM | U-251 > 100 µM | SF-539 > 100 µM | PC-3 > 100 µM | SK-MEL-5 > 100 µM | NCI-H522 > 100 µM | UO-31 > 100 µM | SW-620 > 100 µM | SK-OV-3 > 100 µM

Cc1ccc(S(=O)(=O)N/N=C2\C=CC3(CC2)C(=O)N(I)c2ccccc23)cc1 (stereo not drawn)
inactive: SR 86.9 µM | RXF 393 15.1 µM | MOLT-4 42.6 µM | OVCAR-4 > 100 µM | MDA-MB-435 > 100 µM | HOP-92 89.7 µM | SK-MEL-28 > 100 µM | M14 > 100 µM | RPMI-8226 39.3 µM | NCI-H23 > 100 µM | U-251 > 100 µM | SF-539 11 µM | PC-3 63.1 µM | SK-MEL-5 > 100 µM | DU-145 > 10 µM | UO-31 > 100 µM | SW-620 > 100 µM | SK-OV-3 > 100 µM

Cc1ncc2c(=O)c3c(oc2n1)c1ccccc1n3Cc1ccccc1
inactive: SR > 100 µM | RXF 393 > 100 µM | MOLT-4 > 100 µM | MDA-MB-435 > 100 µM | SK-MEL-28 > 100 µM | RPMI-8226 > 100 µM | NCI-H23 > 100 µM | MCF7 > 100 µM | U-251 75.5 µM | SF-539 > 100 µM | PC-3 > 100 µM | SK-MEL-5 > 100 µM | DU-145 > 100 µM | NCI-H522 > 100 µM | UO-31 > 100 µM | SW-620 > 100 µM

Cc1ccc(S(=O)(=O)Nn2c(O)c(C#N)c(-c3ccc([N+](=O)[O-])cc3)c(C#N)c2=O)cc1
inactive: RXF 393 > 100 µM | MOLT-4 > 100 µM | OVCAR-4 > 100 µM | MDA-MB-435 > 100 µM | HOP-92 > 100 µM | SK-MEL-28 > 100 µM | M14 > 100 µM | MCF7 > 100 µM | U-251 > 100 µM | SF-539 > 100 µM | PC-3 > 100 µM | SK-MEL-5 > 100 µM | NCI-H522 > 100 µM | SW-620 > 100 µM | SK-OV-3 > 100 µM
